Assay results from patent US10590460B2, “Selective enrichment medium for carbapenem-resistant bacteria” (priority 2008, dated 2020).

Columns and labels:
[1] = system: carbapenem-sensitive flora; assay: Culture of carbapenem-sensitive or carbapenem-resistant strains on CHROMagar Orientation medium with a carbapenem; format: cell-based
Protocol: Different strains of carbapenem-sensitive bacteria or carbapenem-resistant bacteria were cultured under three sets of conditions: • group 1: CHROMagar Orientation medium • group 2: CHROMagar Orientation medium in the presence of meropenem (0.065; 0.25; 1 or 4 mg/L); and • group 3: CHROMagar Orientation medium in the presence of imipenem (MSD, TIENAM (includes 50% imipenem) 0.0325; 0.125; 0.5 or 2 mg/L of imipenem)
Different strains of carbapenem-sensitive bacteria or carbapenem-resistant bacteria were cultured under two sets of conditions: • group 1: CHROMagar Orientation medium; and • group 2: CHROMagar Orientation medium in the presence of ertapenem (INVAZ; 0.0325; 0.065; 0.125; 0.25; 0.5 or 2 mg/L).

[2] = format: physicochemical
Protocol: (§1) Different strains of carbapenem-sensitive bacteria or carbapenem-resistant bacteria were cultured under three different sets of conditions and with different spreading concentrations: • group 1: CHROMagar Orientation medium • group 2: CHROMagar Orientation medium in the presence of imipenem (MSD, TIENAM (includes 50% imipenem) 1 or 2 mg/L imipenem), and • group 3: CHROMagar Orientation medium in the presence of meropenem (0.12 or 0.25 mg/L).
(§2) Culture plates were then incubated at 37° C. and analysed regularly to establish the growth or absence of growth of bacteria.

[3] = system: carbapenem-sensitive bacteria; assay: Ageing tests on meropenem versus imipenem in CHROMagar Orientation medium; format: cell-based
Protocol: as §1, §2

Structure (SMILES) | minimum concentration needed to eliminate carbapenem-sensitive flora (in words) ([1]; ertapenem 0.0325-2 mg/L tested) | stability in an agar medium (duration) [2] [months] | stability in an agar medium (in words) [2] | minimum concentration to eliminate carbapenem-sensitive flora [1] [mg/L] | minimum concentration of meropenem relative to necessary minimum concentration of imipenem [1] | inhibition of the growth of carbapenem-sensitive bacteria ([3]; 0.25 mg/L meropenem, 55 days in culture, 37° C.) | effectiveness in terms of inhibition compared to imipenem ([3]; ageing test, CHROMagar Orientation medium) | stability in the used culture medium compared to imipenem [2]
C[C@@H](O)[C@H]1C(=O)N2C(C(=O)O)=C(S[C@@H]3CN[C@H](C(=O)Nc4cccc(C(=O)O)c4)C3)[C@H](C)[C@H]12 [ertapenem] | falls between that of meropenem and imipenem | 2 to 4 | good |  |  |  |  | 
C[C@@H](O)[C@H]1C(=O)N2C(C(=O)O)=C(SCCN=CN)C[C@H]12 [imipenem] |  |  |  | 1 |  |  |  | 
C[C@@H](O)[C@H]1C(=O)N2C(C(=O)O)=C(S[C@@H]3CN[C@H](C(=O)N(C)C)C3)[C@H](C)[C@H]12 [meropenem] |  | 2 to 4 |  | 0.25 | about ten times lower | always higher than inhibition obtained at a concentration of 0.12 mg/L of meropenem after 36 days in culture | much more effective than imipenem | much higher stability
